# pIC50: −log10 of the molar value. The source made the active and inactive calls. The rule behind the calls is not given here.
# Tests used:
# Homo sapiens = species: Homo sapiens; experiment: Inhibition of telomerase (unknown origin) at 10 uM TRAP assay
# CAKI-1 = experiment: Cytotoxicity against human CAKI-1 cells at 10 uM after 48 hrs by sulforhodamine B assay relative to control; format: functional
# MDA-MB-468 = experiment: Cytotoxicity against human MDA-MB-468 cells at 10 uM after 48 hrs by sulforhodamine B assay relative to control; format: functional
# T47D = experiment: Cytotoxicity against human T47D cells at 10 uM after 48 hrs by sulforhodamine B assay relative to control; format: functional
# BT-549 = experiment: Cytotoxicity against human BT549 cells at 10 uM after 48 hrs by sulforhodamine B assay relative to control; format: functional
# [1] = Cytotoxicity against human Hs 578T cells at 10 uM after 48 hrs by sulforhodamine B assay relative to control; format: functional
# MDA-MB-231 = experiment: Cytotoxicity against human MDA-MB-231 cells at 10 uM after 48 hrs by sulforhodamine B assay relative to control; format: functional
# MCF7 = experiment: Cytotoxicity against human MCF7 cells at 10 uM after 48 hrs by sulforhodamine B assay relative to control; format: functional
# DU-145 = experiment: Cytotoxicity against human DU145 cells at 10 uM after 48 hrs by sulforhodamine B assay relative to control; format: functional
# PC-3 [2] = experiment: Cytotoxicity against human PC3 cells at 10 uM after 48 hrs by sulforhodamine B assay relative to control; format: functional
# UO-31 = experiment: Cytotoxicity against human UO31 cells at 10 uM after 48 hrs by sulforhodamine B assay relative to control; format: functional
# TK-10 = experiment: Cytotoxicity against human TK10 cells at 10 uM after 48 hrs by sulforhodamine B assay relative to control; format: functional
# SN12C = experiment: Cytotoxicity against human SN12C cells at 10 uM after 48 hrs by sulforhodamine B assay relative to control; format: functional
# RXF 393 = experiment: Cytotoxicity against human RXF393 cells at 10 uM after 48 hrs by sulforhodamine B assay relative to control; format: functional
# ACHN = experiment: Cytotoxicity against human ACHN cells at 10 uM after 48 hrs by sulforhodamine B assay relative to control; format: functional
# 786-0 = experiment: Cytotoxicity against human 786-0 cells at 10 uM after 48 hrs by sulforhodamine B assay relative to control; format: functional
# NCI/ADR-RES = experiment: Cytotoxicity against human NCI/ADR-RES cells at 10 uM after 48 hrs by sulforhodamine B assay relative to control; format: functional
# OVCAR-8 = experiment: Cytotoxicity against human OVCAR8 cells at 10 uM after 48 hrs by sulforhodamine B assay relative to control; format: functional
# OVCAR-5 = experiment: Cytotoxicity against human OVCAR5 cells at 10 uM after 48 hrs by sulforhodamine B assay relative to control; format: functional
# OVCAR-4 = experiment: Cytotoxicity against human OVCAR4 cells at 10 uM after 48 hrs by sulforhodamine B assay relative to control; format: functional
# OVCAR-3 = experiment: Cytotoxicity against human OVCAR3 cells at 10 uM after 48 hrs by sulforhodamine B assay relative to control; format: functional
# IGROV-1 = experiment: Cytotoxicity against human IGROV1 cells at 10 uM after 48 hrs by sulforhodamine B assay relative to control; format: functional
# UACC-62 = experiment: Cytotoxicity against human UACC62 cells at 10 uM after 48 hrs by sulforhodamine B assay relative to control; format: functional
# UACC-257 = experiment: Cytotoxicity against human UACC257 cells at 10 uM after 48 hrs by sulforhodamine B assay relative to control; format: functional
# SK-MEL-5 = experiment: Cytotoxicity against human SK-MEL-5 cells at 10 uM after 48 hrs by sulforhodamine B assay relative to control; format: functional
# SK-MEL-28 = experiment: Cytotoxicity against human SK-MEL-28 cells at 10 uM after 48 hrs by sulforhodamine B assay relative to control; format: functional
# SK-MEL-2 = experiment: Cytotoxicity against human SK-MEL-2 cells at 10 uM after 48 hrs by sulforhodamine B assay relative to control; format: functional
# MDA-MB-435 = experiment: Cytotoxicity against human MDA-MB-435 cells at 10 uM after 48 hrs by sulforhodamine B assay relative to control; format: functional
# M14 = experiment: Cytotoxicity against human M14 cells at 10 uM after 48 hrs by sulforhodamine B assay relative to control; format: functional
# Malme-3M = experiment: Cytotoxicity against human MALME-3M cells at 10 uM after 48 hrs by sulforhodamine B assay relative to control; format: functional
# LOX IMVI = experiment: Cytotoxicity against human LOXIMVI cells at 10 uM after 48 hrs by sulforhodamine B assay relative to control; format: functional
# SNB-75 = experiment: Cytotoxicity against human SNB75 cells at 10 uM after 48 hrs by sulforhodamine B assay relative to control; format: functional
# U-251 = experiment: Cytotoxicity against human U251 cells at 10 uM after 48 hrs by sulforhodamine B assay relative to control; format: functional
# SF-539 = experiment: Cytotoxicity against human SF539 cells at 10 uM after 48 hrs by sulforhodamine B assay relative to control; format: functional
# SNB-19 = experiment: Cytotoxicity against human SNB19 cells at 10 uM after 48 hrs by sulforhodamine B assay relative to control; format: functional
# SF-295 = experiment: Cytotoxicity against human SF295 cells at 10 uM after 48 hrs by sulforhodamine B assay relative to control; format: functional
# SF-268 = experiment: Cytotoxicity against human SF268 cells at 10 uM after 48 hrs by sulforhodamine B assay relative to control; format: functional
# SW-620 = experiment: Cytotoxicity against human SW620 cells at 10 uM after 48 hrs by sulforhodamine B assay relative to control; format: functional
# KM12 = experiment: Cytotoxicity against human KM12 cells at 10 uM after 48 hrs by sulforhodamine B assay relative to control; format: functional
# HT-29 = experiment: Cytotoxicity against human HT-29 cells at 10 uM after 48 hrs by sulforhodamine B assay relative to control; format: functional
# HCT-15 = experiment: Cytotoxicity against human HCT15 cells at 10 uM after 48 hrs by sulforhodamine B assay relative to control; format: functional
# HCT-116 = experiment: Cytotoxicity against human HCT116 cells at 10 uM after 48 hrs by sulforhodamine B assay relative to control; format: functional
# HCC 2998 = experiment: Cytotoxicity against human HCC2998 cells at 10 uM after 48 hrs by sulforhodamine B assay relative to control; format: functional
# COLO 205 = experiment: Cytotoxicity against human COLO205 cells at 10 uM after 48 hrs by sulforhodamine B assay relative to control; format: functional
# NCI-H522 = experiment: Cytotoxicity against human NCI-H522 cells at 10 uM after 48 hrs by sulforhodamine B assay relative to control; format: functional
# NCI-H460 = experiment: Cytotoxicity against human NCI-H460 cells at 10 uM after 48 hrs by sulforhodamine B assay relative to control; format: functional
# NCI-H322M = experiment: Cytotoxicity against human NCI-H322M cells at 10 uM after 48 hrs by sulforhodamine B assay relative to control; format: functional
# NCI-H23 = experiment: Cytotoxicity against human NCI-H23 cells at 10 uM after 48 hrs by sulforhodamine B assay relative to control; format: functional
# NCI-H226 = experiment: Cytotoxicity against human NCI-H226 cells at 10 uM after 48 hrs by sulforhodamine B assay relative to control; format: functional
# HOP-92 = experiment: Cytotoxicity against human HOP92 cells at 10 uM after 48 hrs by sulforhodamine B assay relative to control; format: functional
# HOP-62 = experiment: Cytotoxicity against human HOP62 cells at 10 uM after 48 hrs by sulforhodamine B assay relative to control; format: functional
# [3] = Cytotoxicity against human EKVX cells at 10 uM after 48 hrs by sulforhodamine B assay relative to control; format: functional
# A549 = experiment: Cytotoxicity against human A549 cells at 10 uM after 48 hrs by sulforhodamine B assay relative to control; format: functional
# SR = experiment: Cytotoxicity against human SR cells at 10 uM after 48 hrs by sulforhodamine B assay relative to control; format: functional
# RPMI-8226 = experiment: Cytotoxicity against human RPMI8226 cells at 10 uM after 48 hrs by sulforhodamine B assay relative to control; format: functional
# MOLT-4 = experiment: Cytotoxicity against human MOLT4 cells at 10 uM after 48 hrs by sulforhodamine B assay relative to control; format: functional
# K562 = experiment: Cytotoxicity against human K562 cells at 10 uM after 48 hrs by sulforhodamine B assay relative to control; format: functional
# HL-60(TB) = experiment: Cytotoxicity against human HL-60(TB) cells at 10 uM after 48 hrs by sulforhodamine B assay relative to control; format: functional
# CCRF-CEM = experiment: Cytotoxicity against human CCRF-CEM cells at 10 uM after 48 hrs by sulforhodamine B assay relative to control; format: functional
# PC-3 [4] = experiment: Cytotoxicity against human PC3 cells after 48 hrs by sulforhodamine B assay; format: functional, cell-based; settings: PC-3, 48 h
smiles,measurement,setting,value
CCNCCC(=O)Nc1ccc2c(c1)C(=O)c1cc(NC(=O)CCNCC)ccc1-2,inhibition,Homo sapiens,inactive
same,Activity,CAKI-1,96.47%
same,Activity,MDA-MB-468,96.83%
same,Activity,T47D,108.97%
same,Activity,BT-549,119.2%
same,Activity,[1],98.9%
same,Activity,MDA-MB-231,105.71%
same,Activity,MCF7,87.69%
same,Activity,DU-145,120.33%
same,Activity,PC-3 [2],101.42%
same,Activity,UO-31,102.42%
same,Activity,TK-10,103.34%
same,Activity,SN12C,94.35%
same,Activity,RXF 393,105.09%
same,Activity,ACHN,120.72%
same,Activity,786-0,102.08%
same,Activity,NCI/ADR-RES,96.39%
same,Activity,OVCAR-8,103.63%
same,Activity,OVCAR-5,110.42%
same,Activity,OVCAR-4,105.01%
same,Activity,OVCAR-3,120.25%
same,Activity,IGROV-1,108.06%
same,Activity,UACC-62,100.48%
same,Activity,UACC-257,111.63%
same,Activity,SK-MEL-5,102.17%
same,Activity,SK-MEL-28,105.31%
same,Activity,SK-MEL-2,126.91%
same,Activity,MDA-MB-435,97.63%
same,Activity,M14,113.99%
same,Activity,Malme-3M,101.61%
same,Activity,LOX IMVI,97.55%
same,Activity,SNB-75,92.33%
same,Activity,U-251,92.86%
same,Activity,SF-539,116.97%
same,Activity,SNB-19,100.42%
same,Activity,SF-295,88.95%
same,Activity,SF-268,121.13%
same,Activity,SW-620,101.71%
same,Activity,KM12,114.64%
same,Activity,HT-29,104.19%
same,Activity,HCT-15,108.19%
same,Activity,HCT-116,109.77%
same,Activity,HCC 2998,104.87%
same,Activity,COLO 205,110.13%
same,Activity,NCI-H522,103.53%
same,Activity,NCI-H460,109.14%
same,Activity,NCI-H322M,100.96%
same,Activity,NCI-H23,98.77%
same,Activity,NCI-H226,105.54%
same,Activity,HOP-92,87.24%
same,Activity,HOP-62,105.98%
same,Activity,[3],102.12%
same,Activity,A549,94.72%
same,Activity,SR,101.47%
same,Activity,RPMI-8226,104.16%
same,Activity,MOLT-4,98.76%
same,Activity,K562,92.16%
same,Activity,HL-60(TB),104.46%
same,Activity,CCRF-CEM,101.3%
same,pIC50,PC-3 [4],< 4.52
CCNCC(=O)Nc1ccc2c(c1)C(=O)c1cc(NC(=O)CNCC)ccc1-2,inhibition,Homo sapiens,inactive
same,Activity,CAKI-1,94.69%
same,Activity,MDA-MB-468,63.55%
same,Activity,T47D,88.81%
same,Activity,BT-549,123.2%
same,Activity,[1],91.4%
same,Activity,MDA-MB-231,77.38%
same,Activity,MCF7,40.53%
same,Activity,DU-145,69.67%
same,Activity,PC-3 [2],67.64%
same,Activity,UO-31,89.54%
same,Activity,TK-10,88.37%
same,Activity,SN12C,77.91%
same,Activity,RXF 393,91.9%
same,Activity,ACHN,69.43%
same,Activity,786-0,101.23%
same,Activity,NCI/ADR-RES,93.46%
same,Activity,OVCAR-8,61.15%
same,Activity,OVCAR-5,116.02%
same,Activity,OVCAR-4,69.72%
same,Activity,OVCAR-3,90.91%
same,Activity,IGROV-1,97.57%
same,Activity,UACC-62,110.09%
same,Activity,UACC-257,97.32%
same,Activity,SK-MEL-5,93.43%
same,Activity,SK-MEL-28,82.07%
same,Activity,SK-MEL-2,106.9%
same,Activity,MDA-MB-435,65.72%
same,Activity,M14,90.37%
same,Activity,Malme-3M,113.96%
same,Activity,LOX IMVI,72.19%
same,Activity,SNB-75,92.67%
same,Activity,U-251,55.71%
same,Activity,SF-539,102.19%
same,Activity,SNB-19,95.76%
same,Activity,SF-295,91.26%
same,Activity,SF-268,78.21%
same,Activity,SW-620,51.79%
same,Activity,KM12,77.37%
same,Activity,HT-29,48.89%
same,Activity,HCT-15,95.25%
same,Activity,HCT-116,64.57%
same,Activity,HCC 2998,85.37%
same,Activity,COLO 205,64.33%
same,Activity,NCI-H522,82.16%
same,Activity,NCI-H460,70.36%
same,Activity,NCI-H322M,67.74%
same,Activity,NCI-H23,78.18%
same,Activity,NCI-H226,99.42%
same,Activity,HOP-62,71.54%
same,Activity,[3],90.83%
same,Activity,A549,62.52%
same,Activity,SR,81.75%
same,Activity,RPMI-8226,91.09%
same,Activity,MOLT-4,61.34%
same,Activity,K562,53.9%
same,Activity,HL-60(TB),95.53%
same,Activity,CCRF-CEM,66.36%
same,pIC50,PC-3 [4],5.36

# Reference: ChEMBL document CHEMBL2439971, “Design, synthesis and antiproliferative evaluation of fluorenone analogs with DNA topoisomerase I inhibitory properties” (Bioorg Med Chem, 2013)
